Measured values from US7803407B2 (priority 1997, dated 2010).

What was measured:
Experiment in all cases: Laboratory disinfection efficacy test (suspension, pour plate count)
Type in all cases: cell-based
[1] = system: Salmonella cholerasuis strain ATCC 10708
Experimental: (§1) The inoculum level for each of the test microorganisms were established in a similar manner. Test strains were grown individually at 35° C. for 24 hr. The cells were harvested by centrifugation at 10,000×g for 10 minutes and washed twice with Butterfield's Phosphate Buffer (BPB of pH 7.2). The cells were resuspended in the Butterfield's Phosphate Buffer to obtain a cell suspension of approximately 1.0×10^8 CFU/mL for each microorganism (target inoculum levels were approx. 10^6 in the final test solution).
(§2) The test microorganisms considered were tested at uniform sampling intervals, The sampling intervals selected were (a) 15 seconds (ethanol trials only), (b) 1 minute, (c) 5 minutes, (d) 10 minutes and (e) 30 minutes.
(§3) Five compounds were tested against the test microorganisms.
(§4) The test microorganisms were tested in accordance with the following test procedures. Duplicate trials were conducted for each test variable. Ninety nine volumes of the test solutions in 250 mL Erlenmeyer flasks were prepared from sterilized deionized water. The solutions were inoculated separately with one mL of 24 hour culture from each of the test strains to yield a flask inoculum level of approximately 1.0×10^6 CFU/mL.
(§5) Solutions were mixed well and kept under constant agitation. Samples of 1.0 mL were removed at the above specified time intervals and placed into 9.0 mL Neutralization Broth media (Difco) to yield an initial dilution of 1:10. All samples were serially diluted in the Butterfield's Phosphate Buffer solution (BPB) and plated onto Tryptic Soy Agar (TSA) in duplicate using the pour plate technique. Percent reductions were calculated for each test solution against each test strain.
(§6) For all tests which utilized either copper or silver ions, concentrated solutions were prepared 24 hours prior to the beginning of the study. Solutions were filtered and determinations for ion content were made. From these stock solutions (copper ion concentration as measured by ICAP and silver ion concentration as measured by Atomic Absorption analysis), final working solutions were made. The target ion concentration for both copper and silver was 5.0 mg/L.

[2] = system: Staphylococcus aureus strain ATCC 6538; conditions: 15 seconds (ethanol trials) or 1 minute to 30 minutes
Experimental: as §1, §2, §3, §4, §5, §6

[3] = system: pseudomonas aeruginosa strain ATCC 15442; conditions: 15 seconds (ethanol trials) or 1 minute to 30 minutes
Experimental: as §1, §2, §3, §4, §5, §6

| Structure (SMILES) | log10 reduction ([1]; 1 minute contact) [log10] | disinfection ([1]; after 30 minutes of contact time) | disinfection effectiveness ([1]; all time periods up to 30 minutes) | disinfection effectiveness [2] | disinfection effectiveness [3] | log10 reduction ([1]; 30 minute time period) [log10] |
| --- | --- | --- | --- | --- | --- | --- |
| CCO [20% ethanol, ethanol] | ~1.0 | Near complete disinfection | slow, but complete disinfection | No significant reduction | no significant reduction |  |
| O=C(O)CC(O)(CC(=O)O)C(=O)O [citric acid] |  |  |  | Neither citric acid nor copper:citric acid was effective | no significant reduction | 1.0 |
